# Measurements as given in ChEMBL document CHEMBL4308841, “Synthesis, in vitro antiproliferative activity, and kinase inhibitory effects of pyrazole-containing diarylureas and diarylamides” (Eur J Med Chem, 2018).
# Tests used:
# NCI-H23 = assay: Growth inhibition of human NCI-H23 cells assessed as cell growth at 0.1 uM incubated for 48 hrs by sulforhodamine B assay relative to control; type: functional; conditions: NCI-H23, 48 h, read-out: Activity
# HCT-15 = assay: Growth inhibition of human HCT15 cells assessed as cell growth at 0.01 uM incubated for 48 hrs by sulforhodamine B assay relative to control; type: functional; conditions: HCT-15, 48 h, read-out: Activity
# NCI-H322M [1] = assay: Growth inhibition of human NCI-H322M cells assessed as cell growth at 100 uM incubated for 48 hrs by sulforhodamine B assay relative to control; type: functional; conditions: read-out: Activity
# MDA-MB-468 = assay: Growth inhibition of human MDA-MB-468 cells incubated for 48 hrs by sulforhodamine B assay; type: functional, cell-based; conditions: MDA-MB-468, 48 h
# SK-MEL-2 [2] = assay: Growth inhibition of human SK-MEL-2 cells assessed as cell growth at 1 uM incubated for 48 hrs by sulforhodamine B assay relative to control; type: functional; conditions: SK-MEL-2, 48 h, read-out: Activity
# CCRF-CEM = assay: Growth inhibition of human CCRF-CEM cells assessed as cell growth at 0.01 uM incubated for 48 hrs by sulforhodamine B assay relative to control; type: functional; conditions: read-out: Activity
# COLO 205 [3] = assay: Growth inhibition of human COLO205 cells assessed as cell growth at 0.1 uM incubated for 48 hrs by sulforhodamine B assay relative to control; type: functional; conditions: COLO 205, 48 h, read-out: Activity
# SR = assay: Growth inhibition of human SR cells assessed as cell growth at 0.1 uM incubated for 48 hrs by sulforhodamine B assay relative to control; type: functional; conditions: read-out: Activity
# PC-3 [4] = assay: Growth inhibition of human PC3 cells assessed as cell growth at 0.01 uM incubated for 48 hrs by sulforhodamine B assay relative to control; type: functional; conditions: PC-3, 48 h, read-out: Activity
# MDA-MB-231 = assay: Growth inhibition of human MDA-MB-231 cells incubated for 48 hrs by sulforhodamine B assay; type: functional, cell-based; conditions: MDA-MB-231, 48 h
# Malme-3M = assay: Growth inhibition of human MALME-3M cells assessed as cell growth at 1 uM incubated for 48 hrs by sulforhodamine B assay relative to control; type: functional; conditions: read-out: Activity
# NCI-H460 = assay: Growth inhibition of human NCI-H460 cells assessed as cell growth at 100 uM incubated for 48 hrs by sulforhodamine B assay relative to control; type: functional; conditions: NCI-H460, 48 h, read-out: Activity
# SNB-19 = assay: Growth inhibition of human SNB19 cells incubated for 48 hrs by sulforhodamine B assay; type: functional, cell-based; conditions: SNB-19, 48 h
# NCI-H226 = assay: Growth inhibition of human NCI-H226 cells assessed as cell growth at 0.1 uM incubated for 48 hrs by sulforhodamine B assay relative to control; type: functional; conditions: NCI-H226, 48 h, read-out: Activity
# NCI-H522 = assay: Growth inhibition of human NCI-H522 cells assessed as cell growth at 0.01 uM incubated for 48 hrs by sulforhodamine B assay relative to control; type: functional; conditions: NCI-H522, 48 h, read-out: Activity
# CAKI-1 = assay: Growth inhibition of human Caki1 cells incubated for 48 hrs by sulforhodamine B assay; type: functional, cell-based; conditions: CAKI-1, 48 h
# UO-31 = assay: Growth inhibition of human UO31 cells assessed as cell growth at 100 uM incubated for 48 hrs by sulforhodamine B assay relative to control; type: functional; conditions: UO-31, 48 h, read-out: Activity
# NCI/ADR-RES = assay: Growth inhibition of human NCI/ADR-RES cells assessed as cell growth at 0.1 uM incubated for 48 hrs by sulforhodamine B assay relative to control; type: functional; conditions: read-out: Activity
# COLO 205 [5] = assay: Growth inhibition of human COLO205 cells assessed as cell growth at 0.01 uM incubated for 48 hrs by sulforhodamine B assay relative to control; type: functional; conditions: COLO 205, 48 h, read-out: Activity
# PC-3 [6] = assay: Growth inhibition of human PC3 cells assessed as cell growth at 0.1 uM incubated for 48 hrs by sulforhodamine B assay relative to control; type: functional; conditions: PC-3, 48 h, read-out: Activity
# SF-295 = assay: Growth inhibition of human SF295 cells assessed as cell growth at 0.1 uM incubated for 48 hrs by sulforhodamine B assay relative to control; type: functional; conditions: SF-295, 48 h, read-out: Activity
# NCI-H322M [7] = assay: Growth inhibition of human NCI-H322M cells assessed as cell growth at 0.01 uM incubated for 48 hrs by sulforhodamine B assay relative to control; type: functional; conditions: read-out: Activity
# A549 = assay: Growth inhibition of human A549/ATCC cells assessed as cell growth at 0.1 uM incubated for 48 hrs by sulforhodamine B assay relative to control; type: functional; conditions: A549, 48 h, read-out: Activity
# SW-620 = assay: Growth inhibition of human SW620 cells incubated for 48 hrs by sulforhodamine B assay; type: functional, cell-based; conditions: SW-620, 48 h
# SF-539 = assay: Growth inhibition of human SF539 cells assessed as cell growth at 100 uM incubated for 48 hrs by sulforhodamine B assay relative to control; type: functional; conditions: SF-539, 48 h, read-out: Activity
# OVCAR-4 [8] = assay: Growth inhibition of human OVCAR4 cells assessed as cell growth at 100 uM incubated for 48 hrs by sulforhodamine B assay relative to control; type: functional; conditions: OVCAR-4, 48 h, read-out: Activity
# SK-MEL-2 [9] = assay: Growth inhibition of human SK-MEL-2 cells assessed as cell growth at 10 uM incubated for 48 hrs by sulforhodamine B assay relative to control; type: functional; conditions: SK-MEL-2, 48 h, read-out: Activity
# OVCAR-4 [10] = assay: Growth inhibition of human OVCAR4 cells incubated for 48 hrs by sulforhodamine B assay; type: functional, cell-based; conditions: OVCAR-4, 48 h
# MDA-MB-435 = assay: Growth inhibition of human MDA-MB-435 cells assessed as cell growth at 100 uM incubated for 48 hrs by sulforhodamine B assay relative to control; type: functional; conditions: MDA-MB-435, 48 h, read-out: Activity
# T47D = assay: Growth inhibition of human T47D cells assessed as cell growth at 1 uM incubated for 48 hrs by sulforhodamine B assay relative to control; type: functional; conditions: read-out: Activity
# [11] = read-out: LC50 (the source's name)
# [12] = read-out: pLC50 (the source's name) (converted)
structure (smiles),measurement,setting,value
COc1cc(Cl)cc(-c2nn(-c3cccc(NC(=O)Nc4ccc(Cl)c(C(F)(F)F)c4)c3)cc2-c2ccncc2)c1,growth at 0.1 µM,NCI-H23,90%
same,growth at 0.01 µM,HCT-15,92%
same,growth at 100 µM,NCI-H322M [1],-22%
same,IC50,MDA-MB-468,0.99 µM
same,GI50,MDA-MB-468; read-out: GI50,0.9 µM
same,CC50,MDA-MB-468; [11],> 100 µM
same,TGI,MDA-MB-468; read-out: TGI,54.7 µM
same,GI50,MDA-MB-468; read-out: pGI50 (converted),1 µM
same,CC50,MDA-MB-468; [12],> 100 µM
same,TGI,MDA-MB-468; read-out: pTGI (converted),5.5 µM
same,growth at 1 µM,SK-MEL-2 [2],84%
same,growth at 0.01 µM,CCRF-CEM,97%
same,growth at 0.1 µM,COLO 205 [3],99%
same,growth at 0.1 µM,SR,92%
same,growth at 0.01 µM,PC-3 [4],94%
same,GI50,MDA-MB-231; read-out: GI50,1.44 µM
same,CC50,MDA-MB-231; [11],9.52 µM
same,TGI,MDA-MB-231; read-out: TGI,37.4 µM
same,GI50,MDA-MB-231; read-out: pGI50 (converted),1.45 µM
same,CC50,MDA-MB-231; [12],9.77 µM
same,TGI,MDA-MB-231; read-out: pTGI (converted),3.72 µM
same,growth at 1 µM,Malme-3M,67%
same,growth at 100 µM,NCI-H460,-62%
same,GI50,SNB-19; read-out: GI50,2.93 µM
same,CC50,SNB-19; [11],> 100 µM
same,TGI,SNB-19; read-out: TGI,17.5 µM
same,GI50,SNB-19; read-out: pGI50 (converted),1.17 µM
same,CC50,SNB-19; [12],> 100 µM
same,TGI,SNB-19; read-out: pTGI (converted),17.8 µM
same,growth at 0.1 µM,NCI-H226,96%
same,growth at 0.01 µM,NCI-H522,93%
same,GI50,CAKI-1; read-out: GI50,0.615 µM
same,CC50,CAKI-1; [11],> 100 µM
same,TGI,CAKI-1; read-out: TGI,94.3 µM
same,GI50,CAKI-1; read-out: pGI50 (converted),0.813 µM
same,CC50,CAKI-1; [12],> 100 µM
same,TGI,CAKI-1; read-out: pTGI (converted),10.2 µM
same,growth at 100 µM,UO-31,-50%
same,growth at 0.1 µM,NCI/ADR-RES,69%
same,growth at 0.01 µM,COLO 205 [5],97%
same,growth at 0.1 µM,PC-3 [6],91%
same,growth at 0.1 µM,SF-295,98%
same,growth at 0.01 µM,NCI-H322M [7],96%
same,growth at 0.1 µM,A549,98%
same,GI50,SW-620; read-out: GI50,1.51 µM
same,LC50,SW-620; read-out: LC50,5.78 µM
same,TGI,SW-620; read-out: TGI,10.5 µM
same,GI50,SW-620; read-out: pGI50 (converted),1.62 µM
same,LC50,SW-620; read-out: pLC50 (converted),57.5 µM
same,TGI,SW-620; read-out: pTGI (converted),10.5 µM
same,growth at 100 µM,SF-539,-78%
same,growth at 100 µM,OVCAR-4 [8],-16%
same,growth at 10 µM,SK-MEL-2 [9],-34%
same,GI50,OVCAR-4 [10]; read-out: GI50,1.53 µM
same,CC50,OVCAR-4 [10]; [11],> 100 µM
same,TGI,OVCAR-4 [10]; read-out: TGI,25.5 µM
same,GI50,OVCAR-4 [10]; read-out: pGI50 (converted),1.82 µM
same,CC50,OVCAR-4 [10]; [12],> 100 µM
same,TGI,OVCAR-4 [10]; read-out: pTGI (converted),2.63 µM
same,growth at 100 µM,MDA-MB-435,-40%
same,growth at 1 µM,T47D,58%
